How the values were obtained:
[1] = system: Aplysia californica AChBP, CC mutant; conditions: does not abolish ACh binding; ref Hansen and Taylor, 2007; cited from earlier work
[2] = molecular target: chicken α9W55Tα10 receptor (Gallus gallus, UniProt Q9I8C7+Q9PTS8, W84T); experiment: ACh-evoked currents, two-electrode voltage clamp in Xenopus laevis oocytes; type: cell-based
Text: (§1) cDNAs encoding Gallus gallus (chick) or Rattus norvegicus (rat) α9 and α10 nAChR subunits were subcloned into a modified pGEMHE vector for expression studies in Xenopus laevis oocytes. Capped cRNAs were in vitro transcribed from linearized plasmid DNA templates using RiboMAX Large Scale RNA Production System (Promega, Madison, WI). Mutant subunits were produced using Quick Change XL II kit (Stratagene, La Jolla, CA). Amino acid sequences of rat and chicken α9, α10, and Torpedo α1 subunits were aligned using ClustalW (EMBL-EBI, Wellcome Genome Campus, Hinxton, Cambridgeshire). Residues were numbered according to the corresponding Torpedo α1 subunit mature protein ([Karlin, 2002]).
(§2) The maintenance of Xenopus laevis and the preparation and cRNA injection of stage V and VI oocytes have been described in detail elsewhere ([Verbitsky et al., 2000]). Typically, oocytes were injected with 50 nl of RNase-free water containing 0.01–1.0 ng of cRNA (at a 1:1 molar ratio when pairwise combined) and maintained in Barth’s solution at 18°C. Electrophysiological recordings were performed 2–6 days after cRNA injection under two-electrode voltage clamp with an Oocyte Clamp OC-725B or C amplifier (Warner Instruments Corp., Hamden, CT). Recordings were filtered at a corner frequency of 10 Hz using a 900BT Tunable Active Filter (Frequency Devices Inc., Ottawa, IL). Data acquisition was performed using a Patch Panel PP-50 LAB/1 interface (Warner Instruments Corp.) at a rate of 10 points per second. Both voltage and current electrodes were filled with 3 M KCl and had resistances of ∼1 MΩ. Data were analyzed using Clampfit from the pClamp 6.1 software (Molecular Devices, Sunnyvale, CA). During electrophysiological recordings, oocytes were continuously superfused (∼15 ml/min) with normal frog saline composed of: 115 mM NaCl, 2.5 mM KCl, 1.8 mM CaCl2, and 10 mM HEPES buffer, pH 7.2. ACh was added to the perfusion solution for application. Unless otherwise indicated, the membrane potential was clamped to −70 mV. To minimize activation of the endogenous Ca^2+ sensitive chloride current ([Elgoyhen et al., 2001]), all experiments were performed in oocytes incubated with the Ca^2+ chelator 1,2-bis(2-aminophenoxy)ethane-N,N,N′,N′-tetraacetic acid (acetoxymethyl ester) (100 µM) for 3 hours before electrophysiological recordings.
(§3) Concentration-response curves were normalized to the maximal agonist response in each oocyte. The mean and S.E.M. values of the responses are represented. Agonist concentration-response curves were iteratively fitted, using Prism 5 software (GraphPad Software Inc., La Jolla, CA), with the equation: I/Imax = A^nH/(A^nH + EC50^nH), where I is the peak inward current evoked by the agonist at concentration A; Imax is the current evoked by the concentration of the agonist eliciting a maximal response; EC50 is the concentration of the agonist inducing a half-maximal current response; and nH is the Hill coefficient. Data were analyzed using Clampfit from the pClamp 6.1 software.

[3] = molecular target: T1, rat W55T double-mutant α9α10 receptors (Rattus norvegicus, UniProt P43144+Q9JLB5, W81T/W82T); experiment: as above; type: cell-based; conditions: 1 or 30 mM ACh, n = 15
T1 construct: expressed in transfected cells; host or cells: Xenopus laevis oocytes (cRNA injection)
Text: as §1, §2, §3

[4] = molecular target: T2, chicken W55T double-mutant α9α10 receptors (Gallus gallus, UniProt Q9I8C7+Q9PTS8, W83T/W84T); experiment: as above; type: cell-based; conditions: 1 or 30 mM ACh, n = 10
T2 construct: expressed in transfected cells; host or cells: Xenopus laevis oocytes (cRNA injection)
Text: as §1, §2, §3

## CC(=O)OCC[N+](C)(C)C [ACh, acetylcholine]
[1]
  Decrease in affinity on mutation of the CC: 10 fold
[2]
  EC50: 357 ± 75 µM
  Imax (maximal evoked current): 59 ± 8 nA
[3]
  Currents evoked by ACh: failed to evoke currents
[4]
  Currents evoked by ACh: failed to evoke currents
